We go through one molecule from publication PMC10298926, “Biophysical Characterization of the Binding Mechanism between the MATH Domain of SPOP and Its Physiological Partners” (International Journal of Molecular Sciences, 2023).

Broadly, the Kd is the free concentration of one partner at which half of the binding sites on the other are occupied at equilibrium, for simple one-to-one binding. Broadly, the kon is a measure of how fast the partners come together. By koff is commonly meant the first-order rate constant of dissociation. Higher therefore signals a short-lived complex.

Where a SMILES comes first, the peptide text is derived from it.

For one assay, the target named is SPOP MATH WT (Homo sapiens, UniProt O43791). In words: Stopped-flow pseudo-first-order binding kinetics. The settings on record: 298 K. As to the method:
To infer the mechanism of recognition of SPOP MATH, we resorted to performing time-resolved kinetic experiments. SPOP MATH was rapidly mixed with increasing concentrations of dansylated peptides (from 2 to 10 µM for Puc and MacroH2A, and from 2 to 40 µM for PTEN) in a stopped-flow apparatus at 298 K. The binding traces obtained by monitoring the time-resolved fluorescence were satisfactorily fitted to a single exponential equation, allowing calculating the observed rate constants kobs at different peptide concentrations. We then plotted the kobs values over the concentration of dansylated peptide and fitted the data to a simple linear function equation: kobs=kon Peptide+koff where kobs is the observed rate constant; kon and koff are the microscopic association and dissociation rate constants, respectively (Figure 2). The slope and y-axis intercept represent the microscopic association and dissociation rate constant, respectively. To minimize the error associated with the indirect measurement of the dissociation rate constant, we carried out displacement experiments to determine the koff values. The displacement experiments were designed by mixing the preformed complex SPOP MATH-dansylated peptides with a high excess of nondansylated peptide, as described in the Section 4. […] On the basis of these observations, it is possible to conclude that, in the case of binding to MacroH2A and PTEN, there is the presence of an additional step, which escapes detection by stopped-flow experiments and is likely to be negligible in the case of Puc. […] We note that such a case closely resembles the presence of a so-called burst phase, which is frequently observed in protein-folding studies.
(§1) Binding kinetic experiments were performed on an Applied Photophysics DX-17MV stopped-flow apparatus (Applied Photophysics, Leatherhead, UK). Pseudo-first-order binding experiments were performed by mixing a constant concentration (2 μM) of MATH domain with increasing dansylated peptides concentrations, from 2 to 10 μM of Puc and MacroH2A, and 2 to 40 µM of PTEN. The samples were excited at 280 nm, and the emission fluorescence was recorded by using a bandpass 320 nm cutoff filter. The experiments were performed at 298 K. For ionic strength dependence with Puc and MacroH2A, the buffers used were 50 mM sodium-HEPES, pH 7.2, supplemented with 50 mM, 100 mM, 200 mM, or 500 mM of sodium chloride (NaCl). For the PTEN binding salt dependence experiments, lower concentrations of salt were added for the previous buffer list mentioned (10 mM, 25 mM, and 50 mM of sodium chloride). For each acquisition, five traces were collected, averaged, and satisfactorily fitted to a single exponential equation.

Assay [1] addresses SPOP MATH D131A (Homo sapiens, UniProt O43791, D130A, form not given). In words: Stopped-flow pseudo-first-order binding kinetics. The settings on record: dansylated Puc, 298 K. As to the method: (§2) To quantitatively address the role of specific residues in the binding mechanism of SPOP MATH, we resorted to taking advantage of the site-directed mutagenesis and generated ten site-directed mutants corresponding to the residues located in the binding pocket of the SPOP MATH domain. In particular, we produced a set of single mutants where residues R71, Y88, F103, Y124, F125, K130, D131, W132, F134, and K135 were substituted with alanine.
as §1

For another assay, the target named is SPOP MATH F134A (Homo sapiens, UniProt O43791, F133A, form not given). In words: Stopped-flow pseudo-first-order binding kinetics. The settings on record: dansylated Puc, 298 K. The protocol:
as §2, §1

Assay [2] concerns the target SPOP MATH K130A (Homo sapiens, UniProt O43791, K129A, form not given). In words: Stopped-flow pseudo-first-order binding kinetics. The following applies: dansylated Puc, 298 K. The protocol: as §2, §1
For assay [3], the target named is T1, SPOP MATH K135A (Homo sapiens, UniProt O43791, C159S/C44S/C68S/C93S/K134A).
T1 construct: engineered MATH domain of SPOP protein (residues 1–182); His-tag; made in house; host or cells: Escherichia coli BL21 (DE3)
Put plainly: Stopped-flow pseudo-first-order binding kinetics. The settings on record: dansylated Puc, 298 K. As to the method:
as §2, §1

A further assay concerns the target SPOP MATH R71A (Homo sapiens, UniProt O43791, R70A, form not given). Put plainly: Stopped-flow pseudo-first-order binding kinetics. The following applies: dansylated Puc, 298 K. The protocol:
as §2, §1

Assay [4] deals with T2, SPOP MATH Y125A (Homo sapiens, UniProt O43791, Y123A, form not given). In words: Stopped-flow pseudo-first-order binding kinetics. The following applies: dansylated Puc, 298 K. The protocol: as §2, §1
Another assay deals with SPOP MATH Y88A (Homo sapiens, UniProt O43791, Y87A, form not given). Put plainly: Stopped-flow pseudo-first-order binding kinetics. The settings on record: dansylated Puc, 298 K. As to the method:
as §2, §1

Assay [5] addresses T3, SPOP MATH D131A (Homo sapiens, UniProt O43791, C159S/C23S/C44S/C68S/C93S/D130A).
T3 construct: engineered MATH domain of SPOP protein (residues 1–182); His-tag; made in house; host or cells: Escherichia coli BL21 (DE3)
Put plainly: Stopped-flow displacement. The format is binding.
Excerpt: as §2
(§3) Microscopic dissociation rate constants (koff) were directly measured by performing displacement experiments on an Applied Photophysics DX-17MV stopped-flow apparatus (Applied Photophysics). A preincubated complex of MATH domain and dansylated peptides at a constant concentration (both 8 µM) was rapidly mixed with an excess of nondansylated peptides (50 μM). The samples were excited at 280 nm and fluorescence emission was collected by using a 330 ± 30 nm bandpass filter. The experiments were performed at 298 K in the same buffer used for the binding experiments. The observed rate constants were calculated from the average of five single traces. The observed kinetics were consistent with a single exponential decay.

Assay [6] addresses T4, SPOP MATH K130A (Homo sapiens, UniProt O43791, C159S/C23S/C44S/C68S/C93S/K129A).
T4 construct: engineered MATH domain of SPOP protein (residues 1–182); His-tag; made in house; host or cells: Escherichia coli BL21 (DE3)
Put plainly: Stopped-flow displacement. It is filed as binding.
Excerpt: as §2, §3

Assay [7] deals with T1, SPOP MATH K135A. Put plainly: Stopped-flow displacement. It is filed as binding. The following applies: displacement of dansylated Puc, 298 K.
Excerpt: as §2, §3
Target sequence in this assay (O43791 1-182 C44S/C68S/C93S/K134A/C159S): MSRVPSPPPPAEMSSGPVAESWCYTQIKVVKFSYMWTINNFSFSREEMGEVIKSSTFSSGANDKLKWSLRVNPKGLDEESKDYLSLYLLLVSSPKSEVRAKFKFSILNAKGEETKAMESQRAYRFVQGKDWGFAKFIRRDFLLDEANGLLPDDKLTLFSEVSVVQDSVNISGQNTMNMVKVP

Assay [8] addresses T2, SPOP MATH Y125A. In words: Stopped-flow displacement. The format is binding. The settings on record: displacement of dansylated Puc, 298 K.
Excerpt: as §2, §3
Target sequence in this assay (O43791 1-182 Y123A, form open): as the sequence (O43791 1-182 C44S/C68S/C93S/K134A/C159S) above, with S44C, S68C, S93C, Y123A, A134K, S159C counted along it

SPOP MATH WT, sequence (O43791 1-182): as the sequence (O43791 1-182 C44S/C68S/C93S/K134A/C159S) above, with S44C, S68C, S93C, A134K, S159C counted along it
T4 sequence (O43791 1-182 C23S/C44S/C68S/C93S/K129A/C159S): as the sequence (O43791 1-182 C44S/C68S/C93S/K134A/C159S) above, with C23S, K129A, A134K counted along it
T3 sequence (O43791 1-182 C23S/C44S/C68S/C93S/D130A/C159S): as the sequence (O43791 1-182 C44S/C68S/C93S/K134A/C159S) above, with C23S, D130A, A134K counted along it

`CC(C)[C@H](NC(=O)[C@H](CCC(=O)O)NC(=O)[C@H](CC(=O)O)NS(=O)(=O)c1cccc2c(N(C)C)cccc12)C(=O)N[C@H](C(=O)N[C@@H](CO)C(=O)N[C@H](C(=O)N[C@H](C(=O)N[C@@H](CO)C(=O)N[C@@H](CO)C(=O)N[C@@H](CO)C(=O)O)[C@@H](C)O)[C@@H](C)O)[C@@H](C)O` [Puc] (HELM PEPTIDE1{[CN(C)c1cccc2c(S(=O)(=O)[*:2])cccc12].D.E.V.T.S.T.T.S.S.S}$$$$V2.0): the Kd at SPOP MATH WT (read-out: Kinetics KD, WT, from kon (pseudo-first-order) and koff (displacement)) turned out to be 1.4 ± 0.4 µM; at SPOP MATH D131A [1] (kinetic KD from kon and koff) it was 13.3 ± 0.2 µM; at SPOP MATH F134A (kinetic KD from kon and koff) it was 1.7 ± 0.1 µM; on SPOP MATH K130A [2] (kinetic KD from kon and koff) it was 9.5 ± 0.1 µM; on SPOP MATH K135A [3] (kinetic KD from kon and koff), 7.2 ± 0.4 µM; at SPOP MATH R71A (kinetic KD from kon and koff) it was 3.8 ± 0.1 µM. Moreover, the Kd came to 11.7 ± 0.2 µM on SPOP MATH Y125A [4] (kinetic KD from kon and koff); 21 ± 4 µM at SPOP MATH Y88A (kinetic KD from kon and koff). Moreover, the kon amounted to 1.9e+07 ± 1e+06 M⁻¹ s⁻¹ on SPOP MATH WT (stopped-flow, 2 µM MATH domain, dansylated peptide 2 to 10 µM (Puc, MacroH2A) or 2 to 40 µM (PTEN), 50 mM sodium-HEPES, pH 7.2 (for ionic strength series), five traces averaged, slope of kobs vs peptide); 1.82e+07 ± 100000 M⁻¹ s⁻¹ on SPOP MATH D131A [1] (stopped-flow, 2 µM MATH domain); 9.4e+06 ± 200000 M⁻¹ s⁻¹ at SPOP MATH F134A (stopped-flow, 2 µM MATH domain); 1.3e+07 ± 2e+06 M⁻¹ s⁻¹ at SPOP MATH K130A [2] (stopped-flow, 2 µM MATH domain); 6.3e+06 ± 500000 M⁻¹ s⁻¹ on SPOP MATH K135A [3] (stopped-flow, 2 µM MATH domain); 8.8e+06 ± 500000 M⁻¹ s⁻¹ on SPOP MATH R71A (stopped-flow, 2 µM MATH domain). The kon on SPOP MATH Y125A [4] (stopped-flow, 2 µM MATH domain) is 6.71e+06 ± 20000 M⁻¹ s⁻¹; on SPOP MATH Y88A (stopped-flow, 2 µM MATH domain) it was 1.44e+07 ± 800000 M⁻¹ s⁻¹. Besides, the koff on SPOP MATH D131A [5] was found to be 241 ± 1 s⁻¹; at SPOP MATH K130A [6], 123 ± 16 s⁻¹; at SPOP MATH K135A [7], 45.2 ± 0.4 s⁻¹; on SPOP MATH Y125A [8], 78.0 ± 0.2 s⁻¹.
